Counter-ions that a name gives are not always drawn. Like-named read-outs stand apart in the source and are kept apart here.

The subject of assay [1] is MLL-AF9-overexpressing AML-like cells (MA9 cells). Put plainly: Differentiation-inducing activity in MLL-AF9-overexpressing AML-like cells (flow cytometry of Gr-1 and cKit). The note with it: 7 days, 5 or 20 nM (Ex. 25, 27), 150 or 300 nM (Ex. 26), 50 or 100 nM (Ex. 22), compared with the control group (DMSO); for rate of the myeloid cell differentiation antigen Gr-1-expressing cells in living cells: FIG. 10; for rate of the cKit-expressing cells in living cells: FIG. 11. The format is cell-based, mouse. The procedure:
The human MLL-AF9 fusion gene was introduced into cKit-positive mononuclear cells isolated from the myeloid of C57BL6 mouse, by retrovirus infection. MLL-AF9-overexpressing AML-like cells (MA9 cells) that acquired abnormal growth ability were established by liquid-culturing the cells after virus infection for a long period of time. Serum-free medium (GlutaMax, P/S, Stem Pro-34 medium containing 10 ng/ml mIL-3, 50 ng/mL mSCF and 10 ng/mL human Oncostatin M) was used as a culture medium.
(2 μL/well) (day 0). After culturing for 7 days (day 7), the cells were collected, and blocked with 5% FBS/PBS containing 10% Mouse BD Fc Block (BD) for 10 minutes at room temperature, and then any of various antibodies (Gr-1-FITC or CD117 (cKit)-APC: Biolegend) was added thereto at a final concentration of 0.4 μg/sample, and the mixture was reacted on ice for 30 minutes. Then, dead cell staining dye DAPI (0.2 mg/mL) was added thereto at so as to be 1 μL/sample, and the reaction was carried out on ice for additional 2 minutes under shading. Then, the expression level of each surface antigen of the cells was measured by NovoCyte flow cytometer (LMS). The obtained data were analyzed by FlowJo software (Becton Dickinson), and the rate of each surface antigen-expressing cells in the living cells excluding dead cells was graphed.
On the technique in general: Flow cytometry measures light scatter and fluorescence of single cells or particles in a stream.

The test system of assay [2] is MOLM-13 cells. Kind of assay: cells. The format is cell-based. The note with it: Homo sapiens.
Method: (§1) Each cell was purchased from American Type Culture Collection (ATCC). […] The prepared drug-containing plate was stored at −30° C. until use, and thawed before use.
(§2) The suspension of each cells was prepared with 10% FBS RPMI1640 culture medium so as to be 1000 cells/mL (K562) or 10000 cells/mL (MV-4-11, MOLM-13), and seeded on the drug-containing plate (40 μL/well) (day 0). The cells were cultured for additional 3 or 7 days. ATP measurement reagent (CellTiter-Glo (registered trademark, Promega Corporation) 2.0 Assay, model number G9242, Promega Corporation) was added to each well at 10 μL/well, on the day of the drug addition (day 0) and 3 days (day 3) or 7 days (day 7) after the drug addition. After affixing a black sticker on the bottom surface, the mixture was stirred using a microplate mixing deaeration machine (model name, Weltornado FK-62, Sakaki Dengyo Co., Ltd.) (stirring conditions, revolution 9, rotation 7, time 12).
(§3) The cell growth of the drug-added group from day 0 to day 3 or day 7 was calculated as T/C %, when the cell growth of the drug-free group was considered as 100%.
Assay [3] concerns MV-4-11 cells. Kind of assay: Cell growth inhibitory activity, MV-4-11 cells (CellTiter-Glo, 384-well). The format is cell-based. To be noted: Homo sapiens. A general note: Cellular ATP, detected with luciferase, serves as a proxy for viable cell number.
Method: as §1, §2, §3
Assay [4] addresses T1, menin (Flag tagged) and biotinylated MLL1 peptide (1-46aa) (Homo sapiens, UniProt O00255).
T1 sequence (O00255 1-610): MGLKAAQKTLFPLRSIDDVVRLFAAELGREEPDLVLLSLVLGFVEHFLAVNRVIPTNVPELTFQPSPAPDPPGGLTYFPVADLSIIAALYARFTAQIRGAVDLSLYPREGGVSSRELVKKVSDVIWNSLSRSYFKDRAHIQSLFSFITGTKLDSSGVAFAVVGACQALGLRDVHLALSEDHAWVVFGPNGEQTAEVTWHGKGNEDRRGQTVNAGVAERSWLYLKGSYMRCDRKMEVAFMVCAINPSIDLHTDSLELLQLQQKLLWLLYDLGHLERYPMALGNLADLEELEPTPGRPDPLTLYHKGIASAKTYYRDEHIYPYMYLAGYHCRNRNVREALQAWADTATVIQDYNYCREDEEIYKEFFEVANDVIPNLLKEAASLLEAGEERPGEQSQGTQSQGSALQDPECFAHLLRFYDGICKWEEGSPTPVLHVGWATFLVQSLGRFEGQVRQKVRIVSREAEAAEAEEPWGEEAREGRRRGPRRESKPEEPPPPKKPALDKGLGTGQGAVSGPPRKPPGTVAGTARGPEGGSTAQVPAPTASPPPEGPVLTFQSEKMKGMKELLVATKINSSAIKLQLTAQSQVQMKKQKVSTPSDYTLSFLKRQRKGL
Kind of assay: biochemical.
Method: Then, the fluorescence signal by AlphaLISA (registered trademark, PerkinElmer Co., Ltd.) was measured using a plate reader (PerkinElmer Co., Ltd., EnVisionXcite).

Assay [5] relates to K562 cells. Put plainly: Cell growth inhibitory activity, K562 cells (CellTiter-Glo, 384-well). The format is cell-based. To be noted: Homo sapiens.
Method: as §1, §2, §3

For `COc1cc(-c2ccc(CN[C@H]3C[C@@H](O)[C@@H](N(C)c4ncnc5sc(CC(F)(F)F)cc45)C3)cc2)cnc1C#N` [Example 22, 5-[4-({[(1R,3R,4S)-3-hydroxy-4-{methyl[6-(2,2,2-trifluoroethyl)thieno[2,3-d]pyrimidin-4-yl]amino}cyclopentyl]amino}methyl)phenyl]-3-methoxypyridine-2-carbonitrile Hydrochloride], in assay [1], the “rate of the myeloid cell differentiation antigen Gr-1-expressing cells in living cells” value is recorded as “increased the rate of Gr-1-positive cells” and the “rate of the cKit-expressing cells in living cells” value (“rate of the cKit-expressing cells” for short) was “reduced the rate of cKit-positive cells”.

In the case of `COc1cc(-c2ccc(CN[C@H]3C[C@@H](O)[C@@H](N(C)c4ncnc5sc(CC(F)(F)F)cc45)C3)cc2)nnc1OC` [Example 25, (1R,2S,4R)-4-({[4-(5,6-dimethoxypyridazin-3-yl)phenyl]methyl}amino)-2-{methyl[6-(2,2,2-trifluoroethyl)thieno[2,3-d]pyrimidin-4-yl]amino}cyclopentan-1-ol Hydrochloride], in assay [1], the “rate of the myeloid cell differentiation antigen Gr-1-expressing cells in living cells” value is given as “increased the rate of Gr-1-positive cells” and the “rate of the cKit-expressing cells” value is “reduced the rate of cKit-positive cells”.

Take `COc1nc(N(C)[C@H]2C[C@@H](NCc3ccc(-c4cc(OC)c(OC)nn4)cc3)C[C@H]2O)c2cc(CC(F)(F)F)sc2n1` [Example 27, (1R,2S,4R)-4-({[4-(5,6-dimethoxypyridazin-3-yl)phenyl]methyl}amino)-2-{[2-methoxy-6-(2,2,2-trifluoroethyl)thieno[2,3-d]pyrimidin-4-yl](methyl)amino}cyclopentan-1-ol Hydrochloride]: in assay [1], the “rate of the myeloid cell differentiation antigen Gr-1-expressing cells in living cells” value is listed as “increased the rate of Gr-1-positive cells” and the “rate of the cKit-expressing cells” value is recorded as “reduced the rate of cKit-positive cells”.

Regarding `FC(F)(F)Cc1cc2c(N[C@@H]3CCC[C@H](NCc4ccc(NC5CCCCC5)cc4)C3)ncnc2s1` [Example 44, (1S,3R)-N^1-{[4-(cyclohexylamino)phenyl]methyl}-N^3-[6-(2,2,2-trifluoroethyl)thieno[2,3-d]pyrimidin-4-yl]cyclohexane-1,3-diamine hydrochloride], the GI50 (in general, the concentration giving 50% growth inhibition) in assay [2] (MOLM-13, 72 h, read-out: GI50 (μM) Day 3 MOLM-13) turned out to be 2.73 µM; in assay [2] (MOLM-13, 168 h, read-out: GI50 (μM) Day 7 MOLM-13), 2.93 µM; in assay [3] (72 h, MV4;11, Day 3, read-out: GI50 (μM) Day 3 MV4) it was 1.89 µM; in assay [3] (168 h, MV4;11, Day 7, read-out: GI50 (μM) Day 7 MV4) it was 1.53 µM; in assay [5] (72 h, K562, Day 3, read-out: GI50 (μM) Day 3 K562), 2.75 µM; in assay [5] (168 h, K562, Day 7, read-out: GI50 (μM) Day 7 K562), 1.91 µM. Besides, the IC50 (commonly the concentration at which inhibition is half-maximal) in assay [4] came to 0.335 µM.

The values are drawn from US12528822B2, “Cycloalkane-1,3-diamine derivative” (Daiichi Sankyo Company, Limited, priority 2018, dated 2026).
